Values of other authors as cited in patent US10751314B2, “Compositions comprising rumenic acid-rich conjugated linoleic acid for joint health” (STEPAN SPECIALTY PRODUCTS, LLC, priority 2016, dated 2020).

Legend:
[1] = tested on: young men and women with birch pollen allergy; settings: 8 weeks of supplementation
human epithelial cells = settings: via activation of PPARγ
PPARγ = settings: mouse macrophage cells

## CCCCCC/C=C/C=C\CCCCCCCC(=O)O [RA, cis-9, trans-11 linoleic acid]
[1]
  Allergic responses mediated by inflammation: reduced
Human epithelial cells
  Inflammatory responses: reduced inflammatory responses
PPARγ
  Antioxidant activity: served as an antioxidant
  PPARγ activation: activated
